Laboratory results: patent US20070276037A1, “Cytoprotective Effects of Ethyl Pyruvate” (priority 2003, published 2007)

Key:
[1] = system: left ventricular infarction; experiment: Planimetric determination of left ventricular infarction size (TTC/Evans blue); type: in vivo, rat; settings: 30 minutes ischemia and 30 minutes reperfusion; n=15; mean ± SEM
ischemic myocardium = experiment: Myocardial ATP levels (luciferin/luciferase bioluminescence) in acute in vivo ischemia-reperfusion model; parameters: species or system rat; settings: n=5
[2] = system: ischemic and nonischemic myocardium; experiment: Myocardial lipid peroxidation measurements after ischemia and reperfusion; type: in vivo, rat
myocardial function [3] = experiment: Cardiac function over the course of induced ischemia and reperfusion, percentage of baseline (FIGS. 5-7); type: in vivo; settings: p<0.05
Method: In order to determine overall effects of ethyl pyruvate on cardiac function, a number of parameters were evaluated over the course of induced ischemia, and reperfusion, as a function of time.

myocardial function [4] = experiment: Cardiac functional assessment following ischemia and reperfusion (pressure/volume conductance catheter, flow probe); type: in vivo, rat
[5] = 30 min ischemia / 30 min reperfusion, n=6, FIG. 2, mean ± SEM
[6] = after 30 min ischemia / 30 min reperfusion, n=15
[7] = following ischemia and reperfusion, n=15, mean ± SEM, FIG. 8

## CCOC(=O)C(C)=O [ethyl pyruvate]
[1]
  Left ventricular area at risk infarcted (infarction area/area at risk): 25.3%±1.5
Ischemic myocardium; 10 minutes after initiation of ischemia, 1.5 mL/kg iv bolus of 28 mmol/L ethyl pyruvate in Ringer's, mean ± SEM
  ATP level in ischemic region of heart: 87.6 ± 29.2 nmol/g
Ischemic myocardium; ischemic myocardium 10 minutes after initiation of ischemia, FIG. 1
  ATP levels versus controls: Significantly higher levels of ATP
[2]; [5]
  Lipid peroxide level, ischemic myocardium: 63.8 ± 3.3 nmol/g
  Lipid peroxide level, nonischemic myocardium: 42.3 ± 4.8 nmol/g
[2]; n=5, FIG. 3, mean ± SEM
  Lipid peroxide level, ischemic myocardium: 70.4 ± 2.6 nmol/g
[2]; n=6, FIG. 2
  Lipid peroxidation in ischemic myocardium versus control hearts: decreased the level of lipid peroxidation
  Lipid peroxidation in remote nonischemic myocardium versus control: equivalent
Myocardial function [3]; after 8 minutes of ischemia and throughout reperfusion, FIG. 6
  dP/dtmax (contractility) as percentage of baseline, versus controls: significantly greater
Myocardial function [3]; throughout ischemia and reperfusion, FIG. 5
  Maximum left ventricular (LV) pressure as percentage of baseline, versus controls: significantly greater
Myocardial function [3]; throughout ischemia and reperfusion, FIG. 7
  Cardiac output as percentage of baseline, versus controls: significantly greater
Myocardial function [4]; FIG. 8
  Myocardial function (end systolic pressure volume relationships) versus control animals: significantly improved myocardial function
Myocardial function [4]; [6]
  Cardiac output: 26.7 ± 0.9 mL/min
  Ejection fraction: 41.9 ± 3.8%
  Heart rate: 183 ± 9.5 bpm
  Maximum dP/dt: 3518 + 243 mm Hg/s
  Maximum pressure: 86.6 ± 2.9 mm Hg
  Minimum dP/dt: 2841 + 329 mm Hg/s
Myocardial function [4]; [7]
  ESPVR slope: 1.09±0.22
  ESPVR x-axis intercept (x-int): 4.1±19.9
Myocardial function [4]; regression composite, n=15, FIG. 8
  Composite ESPVR: 1.08 (ESV-4.0B)
